# Experimental data taken from US20250051391A1, “PEPTIDE INHIBITORS AND METHODS FOR INHIBITING PROTEIN AGGREGATION IN NEURONS AND NEURODEGENERATIVE DISEASES” (THE GOVERNING COUNCIL OF THE UNIVERSITY OF TORONTO, priority 2021, published 2025).
# Ends that are not written are not given here.
# Columns and labels:
# WT a-syn oligomers = assay: Split luciferase a-syn oligomer/aggregation assay; type: cell-based, human; settings: cells stably expressing split luciferase WT a-syn constructs; GFP-peptide plasmids
# Protocol: tet-off cells stably expressing split luciferase a-syn constructs were trypsinized from subconfluent culture and seeded in a 96-well plate at a density of 15,000 cells per well. Cells were incubated overnight at 37° C. in 5% CO2. […] After 6 h of incubation, 20 μL of cell medium was transferred to a black flat-bottomed 96-well plate. 50 μL of Working solution (Pierce Gaussia-Firefly Luciferase Dual Assay Kit, Thermo Scientific #16181) was added into each well containing cell medium. Immediately after adding the reagent, samples were read using a luminometer with a 480 nm filter.
# a-syn-CHMP2B interaction = target: T1, a-syn-CHMP2B interaction (Homo sapiens, UniProt Q9UQN3); assay: Co-immunoprecipitation: disruption of CHMP2B-A53T a-syn interaction; type: cell-based; settings: HEK293 cells; Flag-CHMP2B, HA-tagged A53T a-syn, GFP-tagged peptides
# T1 construct: expressed in transfected cells; host or cells: HEK293T
# T1 sequence (Q9UQN3 whole entry): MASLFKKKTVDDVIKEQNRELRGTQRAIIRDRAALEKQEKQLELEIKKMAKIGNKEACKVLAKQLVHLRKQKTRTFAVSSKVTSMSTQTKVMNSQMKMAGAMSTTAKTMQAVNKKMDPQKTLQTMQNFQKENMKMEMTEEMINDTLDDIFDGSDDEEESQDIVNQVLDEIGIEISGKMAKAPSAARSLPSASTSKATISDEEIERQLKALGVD
# Protocol: (§1) HEK293T cells were co-transfected with Flag-tagged target protein, HA-tagged source protein, and GFP-tagged peptide or GFP. Cells were lysed 48 h after transfections with radioimmune precipitation assay buffer (50 mM Tris-HCl pH7.4, 1% Nonidet P-40, 150 mM NaCl, 1 mM EDTA, 10 mM Na3VO4, 10 mM sodium pyrophosphate, 25 mM NaF, 1× protease inhibitor mixture (Sigma)) for 30 min at 4° C. and coimmunoprecipitated with Flag beads (Clontech). The resulting immunocomplexes were analyzed by immunoblot using the appropriate antibodies. Protein samples were separated using 4-20% Mini-PROTEAN Tris-glycine gels (Bio-Rad) transferred to PVDF membranes and blocked in 5% milk containing PBS-Tween-20 (0.1%) for 1 h. PVDF membranes were then incubated with specified primary antibodies followed by incubation with horseradish peroxidase-conjugated secondary antibodies (Santa Cruz Biotechnology) and detected using enhanced chemiluminescence (GE Healthcare).
# A53T a-syn = assay: a-syn protein levels by immunoblot in HEK293 cells; type: cell-based, human; settings: HEK293 cells expressing A53T a-syn
# Protocol: Infected or transfected cells were scraped from 6-well dishes and lysed with lysis buffer (50 mM Tris-HCl pH7.4, 1% Nonidet P-40, 150 mM NaCl, 1 mM EDTA, 1× protease inhibitor mixture (Sigma)) for 30 min at 4° C. The insoluble pellet was removed following a 10,000 rpm spin for 5 minutes at 4° C. Lysates were analyzed by SDS-PAGE/immunoblot using 4-20% Mini-PROTEAN Tris-glycine gels (Bio-Rad) transferred to PVDF membranes and blocked in 5% milk containing PBS-Tween-20 (0.1%) for 1 h. PVDF membranes were then incubated with specified primary antibodies followed by incubation with horseradish peroxidase-conjugated secondary antibodies (Santa Cruz Biotechnology) and detected using enhanced chemiluminescence (GE Healthcare).
# Flag-CHMP2B = target: T2, Flag-CHMP2B (Homo sapiens, UniProt Q9UQN3); assay: Flag co-immunoprecipitation of GFP-peptides with Flag-CHMP2B; type: binding; settings: GFP-tagged peptides in HEK293T cells
# T2 construct: expressed in transfected cells; host or cells: HEK293T
# T2 sequence (Q9UQN3 whole entry): as above
# Protocol: as §1
# [1] = system: HEK293 cells overexpressing WT or A53T a-syn; assay: Cell Titer-Glo cell viability assay in a-syn expressing cells; type: cell-based, human; settings: for cell viability / cytoprotective effect: HEK293 cells overexpressing WT or A53T a-syn, with or without MG132, expressed GFP-peptide or protein
# Protocol: Oligonucleotides encoding the specific peptides were synthesized and individually cloned into the pLJM1 nGFP lentiviral vector. Cells were infected with individual constructs, and cell viability was assessed using Cell Titer-Glo Luminescent assay (Promega) at 72 h post infection.
# Cells were trypsinized from subconfluent cultures as described earlier, suspended in culture media, and then seeded into triplicate wells of a 96-well plate (100 μl well/1) at a density of 1.5×10^4 cells per well at standard culture conditions of 5% CO2 in air at 37° C. Cells were infected with lentivirus expressing peptide at an MOI of 5 for 72 h or transfected with plasmid for 72 h. Cell Titer-Glo reagent was added to each well (30 μL), according to the manufacturer's protocol and […].
# CHMP2B-VPS4 interaction = target: T3, CHMP2B-VPS4 interaction (Homo sapiens, UniProt Q9UQN3); assay: Co-immunoprecipitation: disruption of VPS4B-CHMP2B interaction; type: cell-based; settings: Flag-VPS4B, HA-tagged CHMP proteins, GFP-tagged peptides
# T3 construct: expressed in transfected cells; host or cells: HEK293T
# T3 sequence (Q9UQN3 whole entry): as above
# Protocol: as §1
substance,measurement,setting,value
"IPIQLKA [PDpep1, top hit of all screens; maps to CHMP2B residues 203-209]",a-syn oligomers measured by luciferase activity,WT a-syn oligomers,reduce WT a-syn oligomers
same,disruption of a-syn-CHMP2B interaction (co-immunoprecipitation),a-syn-CHMP2B interaction,disrupted the a-syn-CHMP2B interaction
same,a-syn protein levels by immunoblot,A53T a-syn,reduction in a-syn levels
same,interaction with Flag-CHMP2B (co-immunoprecipitation),Flag-CHMP2B,interacted with Flag-CHMP2B
same,cell viability / cytoprotective effect,[1],cytoprotective effects
DEEIERQLKALG [PDpep1.3],a-syn oligomers measured by luciferase activity,WT a-syn oligomers,most prominent effects
same,disruption of a-syn-CHMP2B interaction (co-immunoprecipitation),a-syn-CHMP2B interaction,most prominent disruption
same,effect on CHMP2B-VPS4 interaction (co-immunoprecipitation),CHMP2B-VPS4 interaction,disrupted the interaction between VPS4B and CHMP2B
same,effect on CHMP2B-VPS4 interaction (co-immunoprecipitation),CHMP2B-VPS4 interaction; listed as Pdpep1.3,inhibits the CHMP2B-VPS4 interaction
same,a-syn protein levels by immunoblot,A53T a-syn,reduction in a-syn levels
same,interaction with Flag-CHMP2B (co-immunoprecipitation),Flag-CHMP2B,interacted with Flag-CHMP2B
same,interaction with Flag-CHMP2B (co-immunoprecipitation),Flag-CHMP2B; listed as Pdpep1.3,binds to CHMP2B
same,cell viability / cytoprotective effect,[1],most prominent effects on cell survival
same,effect on cell viability under p62 knockdown,[1]; HEK293 cells stably expressing p62 shRNA,not significantly affected
same,"cytoprotective effect under shRNA knockdown of CHMP2B, VPS4A and/or VPS4B",[1]; cells stably expressing shRNAs,"prevented by CHMP2B knockdown, but not by knockdown of VPS4A and/or VPS4B"
